This is an account of results in paper PMC5316807, “Protective role of fructokinase blockade in the pathogenesis of acute kidney injury in mice” (Nature Communications, 2017).

Structures are written as SMILES.

As usually defined, the IC50 is the concentration needed to halve the response being measured. Read a high IC50 as a need for much substance.

In this experiment the target is T1, fructokinase (ketohexokinase, KHK) (Homo sapiens, UniProt P50053).
T1 sequence (P50053 1-298): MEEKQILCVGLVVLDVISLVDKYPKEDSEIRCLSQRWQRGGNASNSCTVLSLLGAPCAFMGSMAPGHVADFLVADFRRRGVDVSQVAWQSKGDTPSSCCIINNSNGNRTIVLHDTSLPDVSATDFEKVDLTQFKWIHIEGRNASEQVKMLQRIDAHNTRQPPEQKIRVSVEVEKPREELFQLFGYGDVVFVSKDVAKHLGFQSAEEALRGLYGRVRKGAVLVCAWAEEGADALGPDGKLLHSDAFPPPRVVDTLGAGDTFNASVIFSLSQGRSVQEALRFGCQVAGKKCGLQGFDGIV
Put plainly: fructose-dependent ATP depletion assay in HK-2 (human proximal tubule) cell lysates, KHK-deficient HK-2 cells as background control. It counts as biochemical.

Molecule `O=c1cc(-c2ccc(O)c(O)c2)oc2cc(O)cc(O)c12` [luteolin] returned an IC50 of 11.2 µM.
